Patent US20250074943A1, “DLL3 BINDING PEPTIDES AND USES THEREOF” (AMGEN INC., priority 2021, published 2025)
Read-outs that look alike come from different tables or passages of the source. Bridge positions count the residues as written; N and C are the ends. Peptide text beside a SMILES is read from it.

Molecular target: T1, recombinant DLL3 ectodomain (rhDLL3-Fc) (Homo sapiens, UniProt Q9NYJ7)
T1 construct: The recombinant DLL3 ectodomain (rhDLL3-Fc) was biotinylated; Fc
T1 sequence (Q9NYJ7 27-492 limits assumed): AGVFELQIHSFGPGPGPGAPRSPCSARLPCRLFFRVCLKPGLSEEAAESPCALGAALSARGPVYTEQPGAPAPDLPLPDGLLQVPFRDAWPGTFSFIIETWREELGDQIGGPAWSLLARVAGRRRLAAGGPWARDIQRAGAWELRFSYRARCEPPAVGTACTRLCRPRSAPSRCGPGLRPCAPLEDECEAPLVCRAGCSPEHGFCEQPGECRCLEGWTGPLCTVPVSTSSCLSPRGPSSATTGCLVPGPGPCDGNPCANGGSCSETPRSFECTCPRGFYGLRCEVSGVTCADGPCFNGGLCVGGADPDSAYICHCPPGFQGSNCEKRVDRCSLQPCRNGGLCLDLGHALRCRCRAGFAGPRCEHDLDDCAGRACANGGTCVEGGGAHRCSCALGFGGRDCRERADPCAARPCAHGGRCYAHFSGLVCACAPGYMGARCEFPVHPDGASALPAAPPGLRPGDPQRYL
Experiment: Binding kinetic assay using Bio-layer interferometry (BLI)
Details: for binding mode to DLL3: peptides at 20, 4 and 0.8 μM, fit to 1:1 Langmuir binding model; for affinity: wider dose-response 10×KD to 0.1×KD
Experimental: Binding kinetic assays were performed using Bio-layer interferometry (BLI) technology. The recombinant DLL3 ectodomain (rhDLL3-Fc) was biotinylated using EZ-Link Sulfo-NHS-LC-LC-Biotin Kit according to the manufacturer's protocol (Pierce by Thermo Fisher Scientific). The recombinant protein was incubated with an excess of NHS-LC-LC Biotin ester, in a molar ratio of 1:3 (protein: biotin), at 25° C. for 90 min. The un-reacted biotin ester was removed by subsequent buffer exchange on 0.5 ml Zeba spin desalting columns 7K MWCO (Pierce by Thermo Fisher Scientific).

[1] = Table 4, ± values from three independent experiments, read-out: RT (residence time) (converted)
[2] = range over the seven peptides, read-out: residence time

For `CC(C)[C@H](NC(=O)[C@@H](NC(=O)[C@H](CCC(=O)O)NC(=O)[C@H](C)N)[C@@H](C)O)C(=O)N[C@@H](CCC(=O)O)C(=O)N[C@@H](Cc1ccccc1)C(=O)N[C@@H](Cc1c[nH]c2ccccc12)C(=O)N[C@H](C(=O)N[C@H]1CSSC[C@@H](C(=O)N[C@@H](CO)C(=O)N[C@@H](Cc2c[nH]c3ccccc23)C(N)=O)NC(=O)[C@H]([C@@H](C)O)NC(=O)[C@H](Cc2c[nH]c3ccccc23)NC(=O)[C@H](CCC(=O)O)NC(=O)[C@H](CC(=O)O)NC(=O)[C@H](C)NC(=O)[C@H](CC(N)=O)NC(=O)CNC(=O)[C@H](Cc2c[nH]cn2)NC1=O)[C@@H](C)O` [PepSP1162] (H-AETVEFWTCHGNADEWTCSW-NH2; disulfide 9-18), the residence time [1] was 0.85 min and the “binding mode to DLL3” value was “dose-response saturable binding”.
`CC(C)[C@H](NC(=O)[C@@H](NC(=O)[C@H](CCC(=O)O)NC(=O)[C@H](C)N)[C@@H](C)O)C(=O)N[C@@H](CCC(=O)O)C(=O)N[C@@H](Cc1ccccc1)C(=O)N[C@@H](Cc1c[nH]c2ccccc12)C(=O)N[C@@H](CO)C(=O)N[C@H]1CSSC[C@@H](C(=O)NCC(=O)N[C@H](C(N)=O)[C@@H](C)O)NC(=O)[C@H](CO)NC(=O)[C@H](C(C)C)NC(=O)[C@H]([C@@H](C)O)NC(=O)[C@H](Cc2c[nH]c3ccccc23)NC(=O)[C@H](Cc2ccc(O)cc2)NC(=O)[C@H](CO)NC(=O)[C@H](Cc2ccc(O)cc2)NC(=O)[C@H](Cc2c[nH]cn2)NC1=O` [PepSP1157] (H-AETVEFWSCHYSYWTVSCGT-NH2; disulfide 9-18; N-terminus assumed) was tested, and the residence time [1] was 1.48 min and the “binding mode to DLL3” value was “dose-response saturable binding”.
`CC(C)[C@H](NC(=O)[C@@H]1CSSC[C@H](NC(=O)CNC(=O)[C@H](Cc2ccc(O)cc2)NC(=O)[C@H](Cc2ccccc2)NC(=O)[C@H](CCC(=O)O)NC(=O)[C@@H](NC(=O)[C@@H](NC(=O)[C@H](CCC(=O)O)NC(=O)[C@H](C)N)[C@@H](C)O)C(C)C)C(=O)N[C@@H](CCCNC(=N)N)C(=O)NCC(=O)NCC(=O)N[C@@H](CC(=O)O)C(=O)NCC(=O)N[C@@H](CCC(=O)O)C(=O)N[C@@H](Cc2c[nH]c3ccccc23)C(=O)N[C@@H]([C@@H](C)O)C(=O)N1)C(=O)N[C@@H](Cc1c[nH]c2ccccc12)C(N)=O` [PepSP1165] (H-AETVEFYGCRGGDGEWTCVW-NH2; disulfide 9-18; N-terminus assumed) was tested, and the residence time [1] was 1.1 min and the “binding mode to DLL3” value was “dose-response saturable binding”.
In the case of `CC(C)[C@H](NC(=O)[C@@H](NC(=O)[C@H](CCC(=O)O)NC(=O)[C@H](C)N)[C@@H](C)O)C(=O)N[C@@H](CCC(=O)O)C(=O)N[C@@H](Cc1ccccc1)C(=O)N[C@@H](Cc1c[nH]c2ccccc12)C(=O)N[C@@H](CC(=O)O)C(=O)N[C@H]1CSSC[C@@H](C(=O)N[C@H](C(=O)N[C@@H](Cc2c[nH]c3ccccc23)C(N)=O)[C@@H](C)O)NC(=O)[C@H]([C@@H](C)O)NC(=O)[C@H](Cc2c[nH]c3ccccc23)NC(=O)[C@H](CC(=O)O)NC(=O)[C@H](CC(=O)O)NC(=O)[C@H]([C@@H](C)O)NC(=O)[C@H](CC(N)=O)NC(=O)CNC(=O)[C@H](Cc2c[nH]c3ccccc23)NC1=O` [PepSP1161] (H-AETVEFWDCWGNTDDWTCTW-NH2; disulfide 9-18; N-terminus assumed), the “RT (residence time)” value (Table 4, ± values from three independent experiments) is reported as 87.8 ± 6 s, the residence time [1] is reported as 1.46 min and the “binding mode to DLL3” value is reported as “dose-response saturable binding”. The residence time [2] was 1 to 3 min and the affinity was “double-digit nM range”.
In the case of `CC(C)C[C@H](NC(=O)[C@@H]1CSSC[C@H](NC(=O)CNC(=O)[C@H](Cc2ccc(O)cc2)NC(=O)[C@H](Cc2ccccc2)NC(=O)[C@H](CCC(=O)O)NC(=O)[C@@H](NC(=O)[C@@H](NC(=O)[C@H](CCC(=O)O)NC(=O)[C@H](C)N)[C@@H](C)O)C(C)C)C(=O)N[C@@H](Cc2ccc(O)cc2)C(=O)NCC(=O)N[C@@H](CCC(=O)O)C(=O)N[C@@H](CCC(N)=O)C(=O)N[C@@H](CCC(=O)O)C(=O)N[C@@H](CCC(N)=O)C(=O)N[C@@H](Cc2c[nH]c3ccccc23)C(=O)N[C@@H]([C@@H](C)O)C(=O)N1)C(=O)N[C@@H](Cc1c[nH]c2ccccc12)C(N)=O` [PepSP1173] (H-AETVEFYGCYGEQEQWTCLW-NH2; disulfide 9-18), the residence time [1] is reported as 1.68 min and the “binding mode to DLL3” value is reported as “dose-response saturable binding”.
`CC(C)[C@@H]1NC(=O)[C@H](CO)NC(=O)[C@@H](NC(=O)CNC(=O)[C@H](Cc2ccc(O)cc2)NC(=O)[C@H](Cc2ccccc2)NC(=O)[C@H](CCC(=O)O)NC(=O)[C@@H](NC(=O)[C@@H](NC(=O)[C@H](CCC(=O)O)NC(=O)[C@H](C)N)[C@@H](C)O)C(C)C)CSSC[C@@H](C(=O)N[C@@H](CO)C(=O)N[C@@H](Cc2c[nH]c3ccccc23)C(N)=O)NC(=O)[C@H]([C@@H](C)O)NC(=O)[C@H](Cc2c[nH]c3ccccc23)NC(=O)CNC(=O)[C@H](CC(=O)O)NC(=O)[C@H](C)NC(=O)[C@H](CC(N)=O)NC1=O` [PepSP1170] (H-AETVEFYGCSVNADGWTCSW-NH2; disulfide 9-18) was tested, and the residence time [1] was 0.717 min and the “binding mode to DLL3” value was “dose-response saturable binding”.
For `CC(C)[C@H](NC(=O)[C@@H]1CSSC[C@H](NC(=O)CNC(=O)[C@H](CCCNC(=N)N)NC(=O)[C@H](Cc2ccccc2)NC(=O)[C@H](CCC(=O)O)NC(=O)[C@@H](NC(=O)[C@@H](NC(=O)[C@H](CCC(=O)O)NC(=O)[C@H](C)N)[C@@H](C)O)C(C)C)C(=O)N[C@@H]([C@@H](C)O)C(=O)NCC(=O)N[C@@H](CC(N)=O)C(=O)N[C@@H](C(C)C)C(=O)N[C@@H](Cc2ccc(O)cc2)C(=O)N[C@@H](CC(=O)O)C(=O)N[C@@H](Cc2c[nH]c3ccccc23)C(=O)N[C@@H]([C@@H](C)O)C(=O)N1)C(=O)N[C@@H](Cc1c[nH]c2ccccc12)C(N)=O` [PepSP1160] (H-AETVEFRGCTGNVYDWTCVW-NH2; disulfide 9-18), the residence time [1] was 0.783 min and the “binding mode to DLL3” value was “dose-response saturable binding”.
In the case of `CC(C)[C@H](NC(=O)[C@@H](NC(=O)[C@H](CCC(=O)O)NC(=O)[C@H](C)N)[C@@H](C)O)C(=O)N[C@@H](CCC(=O)O)C(=O)N[C@@H](Cc1ccccc1)C(=O)N[C@@H](Cc1ccc(O)cc1)C(=O)NCC(=O)N[C@H]1CSSC[C@@H](C(=O)N[C@@H](C)C(=O)N[C@@H](Cc2c[nH]c3ccccc23)C(N)=O)NC(=O)[C@H]([C@@H](C)O)NC(=O)[C@H](Cc2ccc(O)cc2)NC(=O)[C@H](CC(=O)O)NC(=O)[C@H](Cc2c[nH]c3ccccc23)NC(=O)CNC(=O)[C@H](Cc2ccc(O)cc2)NC(=O)[C@H](Cc2ccc(O)cc2)NC(=O)[C@H](CCC(N)=O)NC1=O` [PepSP1176] (H-AETVEFYGCQYYGWDYTCAW-NH2; disulfide 9-18), the residence time [1] is reported as 1.12 min and the “binding mode to DLL3” value is reported as “dose-response saturable binding”.
With `CC(C)[C@H](NC(=O)[C@@H](NC(=O)[C@H](CCC(=O)O)NC(=O)[C@H](C)N)[C@@H](C)O)C(=O)N[C@@H](CCC(=O)O)C(=O)N[C@@H](Cc1ccccc1)C(=O)N[C@@H](Cc1ccc(O)cc1)C(=O)NCC(=O)N[C@H]1CSSC[C@@H](C(=O)N[C@H](C(=O)N[C@@H](Cc2c[nH]c3ccccc23)C(N)=O)[C@@H](C)O)NC(=O)[C@H]([C@@H](C)O)NC(=O)[C@H](Cc2ccc(O)cc2)NC(=O)[C@H](CCC(=O)O)NC(=O)[C@H](Cc2ccc(O)cc2)NC(=O)[C@H](C)NC(=O)[C@H](CC(=O)O)NC(=O)CNC(=O)[C@H]([C@@H](C)O)NC1=O` [PepSP1147] (H-AETVEFYGCTGDAYEYTCTW-NH2; disulfide 9-18; N-terminus assumed) the residence time [1] was 1.09 min, the “binding mode to DLL3” value was “dose-response saturable binding” and the residence time [2] was 1 to 3 min. The affinity was “double-digit nM range”.
For `CC(C)[C@H](NC(=O)[C@@H](NC(=O)[C@H](CCC(=O)O)NC(=O)[C@H](C)N)[C@@H](C)O)C(=O)N[C@@H](CCC(=O)O)C(=O)N[C@@H](Cc1ccccc1)C(=O)N[C@@H](Cc1ccc(O)cc1)C(=O)NCC(=O)N[C@H]1CSSC[C@@H](C(=O)N[C@H](C(=O)N[C@@H](Cc2c[nH]c3ccccc23)C(N)=O)[C@@H](C)O)NC(=O)[C@H]([C@@H](C)O)NC(=O)[C@H](Cc2ccc(O)cc2)NC(=O)[C@H](CC(=O)O)NC(=O)[C@H](CC(N)=O)NC(=O)[C@H](CCCNC(=N)N)NC(=O)[C@H](CC(=O)O)NC(=O)CNC(=O)[C@H](Cc2ccc(O)cc2)NC1=O` [PepSP1178] (H-AETVEFYGCYGDRNDYTCTW-NH2; disulfide 9-18; N-terminus assumed), the residence time [1] was 1.27 min, the “binding mode to DLL3” value was “dose-response saturable binding” and the residence time [2] was 1 to 3 min. For the same molecule, the affinity was “double-digit nM range”.
`CSCC[C@@H]1NC(=O)[C@H](CO)NC(=O)[C@@H](NC(=O)CNC(=O)[C@H](Cc2ccc(O)cc2)NC(=O)[C@H](Cc2ccccc2)NC(=O)[C@H](CCC(=O)O)NC(=O)[C@@H](NC(=O)[C@@H](NC(=O)[C@H](CCC(=O)O)NC(=O)[C@H](C)N)[C@@H](C)O)C(C)C)CSSC[C@@H](C(=O)N[C@@H](C)C(=O)N[C@@H](Cc2c[nH]c3ccccc23)C(N)=O)NC(=O)[C@H]([C@@H](C)O)NC(=O)[C@H](C(C)C)NC(=O)CNC(=O)[C@H](CCCNC(=N)N)NC(=O)[C@H](Cc2c[nH]c3ccccc23)NC(=O)[C@H](CC(=O)O)NC1=O` [PepSP1158] (H-AETVEFYGCSMDWRGVTCAW-NH2; disulfide 9-18) was tested, and the residence time [1] was 0.517 min and the “binding mode to DLL3” value was “dose-response saturable binding”.
